The values that follow come from US20250163057A1, “DCN-1 MODULATING COMPOUNDS AND METHODS OF USE THEREOF” (Cellarity, Inc., priority 2023, published 2025).

The target of experiment [1] is DCN1 (DCUND1) protein PONY domain (Homo sapiens (Human), UniProt Q96GG9). The experiment in a line: TR-FRET assay, DCN1 binding with FAM-labeled probe. The procedure, abridged: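 Tb-DCN1 PONY domain (E. coli, biotin/streptavidin-Tb); FAM-labelled non-covalent inhibitor probe; TritonX buffer, 200 mM NaCl; 5 nM DCN1 + 20 nM probe or 0.31 nM DCN1 + 900 nM total probe; 0.1% DMSO; TR-FRET read 1, 5, 24 hrs.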
DCN1 (DCUND1) protein PONY domain, sequence (Q96GG9 60-248): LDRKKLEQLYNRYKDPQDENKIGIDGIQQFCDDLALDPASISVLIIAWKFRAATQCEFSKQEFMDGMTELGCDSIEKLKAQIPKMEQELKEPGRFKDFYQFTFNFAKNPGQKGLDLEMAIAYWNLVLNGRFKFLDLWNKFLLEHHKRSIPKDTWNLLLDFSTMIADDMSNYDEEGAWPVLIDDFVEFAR

Experiment [2] has as its target DCN1 protein (Homo sapiens (Human), UniProt Q96GG9). The experiment in a line: Intact Protein MS Analysis with the RapidFire-TOF System (covalent adduct formation). Type of experiment: binding. The following applies: MS Emax; 400 nM DCN1, 3 hours at room temperature. Put shortly:
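Tag-cleaved human DCN1 (400 nM) expressed in E. coli, in 25 mM Tris-HCl, 200 mM NaCl, 1 mM DTT, was incubated with 11 compound concentrations for 3 h at room temperature and quenched with 0.2% formic acid. Intact-protein Q-TOF MS with deconvolution detected the compound adduct mass.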

The test system of experiment [3] is Cullin-3 (CUL3) neddylation. The experiment in a line: AlphaLISA assay for Cullin-3 (CUL3) neddylation in TF 1 cells. It is filed as cell-based. The following applies: Homo sapiens, TF-1, 3 h, 3 hours treatment. Put shortly:
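TF 1 cells in unsupplemented IMDM treated with compound concentrations for 3 h, then lysed. CUL3 neddylation detected by AlphaLISA (biotinylated anti-NEDD8, anti-CUL3 acceptor beads overnight, streptavidin donor beads 1 h); normalized to vehicle (0%) and 1 μM DI-1548 (100%), IC50 from Hill fits.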

Where [4] appears, read: 24 hr after treatment with compound, read-out: TR FRET IC50 24 hr.
The mark [5] stands for this setting: read-out: TR FRET IC50 1 hr, 1 hr after treatment with compound.
Where [6] appears, read: TR FRET IC50 1 hr (nM), 1 hr after treatment with compound.

Where two headings read alike, the source gives them in different places.

DCN1 protein, sequence (Q96GG9 whole entry): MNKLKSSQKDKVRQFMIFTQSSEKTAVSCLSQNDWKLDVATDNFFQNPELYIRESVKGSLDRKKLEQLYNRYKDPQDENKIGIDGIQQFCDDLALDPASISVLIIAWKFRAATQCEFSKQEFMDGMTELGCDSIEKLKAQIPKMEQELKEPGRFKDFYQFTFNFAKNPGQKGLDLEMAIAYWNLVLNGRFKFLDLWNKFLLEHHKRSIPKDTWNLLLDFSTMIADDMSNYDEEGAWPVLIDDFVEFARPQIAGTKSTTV

As to `C=C(CN1CC2(COC2)C1)C(=O)NCc1nn(-c2ccccc2)c2c1[C@H](c1ccc(F)cc1)[C@@H](NC(=O)c1cccc(C(F)(F)F)c1)C(=O)N2CC` [Compound I-149], the IC50 in experiment [1] (setting [4]) is at most 200 nM; in experiment [1] (setting [5]), at most 200 nM; in experiment [3], at most 0.1 µM. For the same molecule, the “% Adduct Formation” value in experiment [2] is “+++ (MS Emax % adduct formation greater than 80.0 and less than or equal to 100.0)”.
Regarding `CCN1C(=O)[C@@H](NC(=O)c2cccc(C(F)(F)F)c2)[C@@H](c2ccc(F)cc2)c2c(C(=O)N3CC[C@H]3C#N)nn(-c3ccccc3)c21` [Compound I-275], the IC50 in experiment [1] (setting [4]) is at most 200 nM; in experiment [1] (setting [5]), at most 200 nM; in experiment [3], at most 0.1 µM. Moreover, in experiment [2], the “% Adduct Formation” value was “++ (MS Emax % adduct formation greater than 30.0 and less than or equal to 80.0)”.
As to `CCN1C(=O)[C@@H](NC(=O)c2cccc(C(F)(F)F)c2)[C@@H](c2ccc(F)cc2)c2c(C(=O)N3CCOC[C@H]3C#N)nn(-c3ccccc3)c21` [Compound I-276], the IC50 was at most 200 nM in experiment [1] (setting [4]), 200 to 1000 nM in experiment [1] (setting [6]) and at most 0.1 µM in experiment [3]. In addition, in experiment [2], the “% Adduct Formation” value is “+++ (MS Emax % adduct formation greater than 80.0 and less than or equal to 100.0)”.
For `CCN1C(=O)[C@@H](NC(=O)c2cccc(C(F)(F)F)c2)[C@@H](c2ccc(F)cc2)c2c([C@@H](CF)NC#N)nn(-c3ccccc3)c21` [Compound I-279], the IC50 in experiment [1] (setting [4]) is at most 200 nM; in experiment [1] (setting [5]), at most 200 nM; in experiment [3], at most 0.1 µM. Moreover, the “% Adduct Formation” value in experiment [2] was “+++ (MS Emax % adduct formation greater than 80.0 and less than or equal to 100.0)”.
For the molecule `CCN1C(=O)[C@@H](NC(=O)c2cccc(C(F)(F)F)c2)[C@@H](c2ccc(F)cc2)c2c(C(=O)N3CCNC[C@@H]3C#N)nn(-c3ccccc3)c21` [Compound I-280], the IC50 in experiment [1] (setting [4]) is at most 200 nM; in experiment [1] (setting [5]) it was at most 200 nM; in experiment [3], at most 0.1 µM. Besides, the “% Adduct Formation” value in experiment [2] is “+++ (MS Emax % adduct formation greater than 80.0 and less than or equal to 100.0)”.
With `CCN1C(=O)[C@@H](NC(=O)c2cccc(C(F)(F)F)c2)[C@H](c2ccc(F)cc2)c2c(CC(=O)NCC#N)nn(-c3ccccc3)c21` [Compound I-298, N-((4R,5S)-3-(2-((cyanomethyl)amino)-2-oxoethyl)-7-ethyl-4-(4-fluorophenyl)-6-oxo-1-phenyl-4,5,6,7-tetrahydro-1H-pyrazolo[3,4-b]pyridin-5-yl)-3-(trifluoromethyl)benzamide], the IC50 is 200 to 1000 nM in experiment [1] (setting [4]), 200 to 1000 nM in experiment [1] (setting [6]) and 0.1 to 1 µM in experiment [3]. In addition, in experiment [2], the “% Adduct Formation” value was “+ (MS Emax % adduct formation greater than or equal to 0.0 and less than or equal to 30.0)”.
For `CCN1C(=O)[C@@H](NC(=O)c2cccc(C(F)(F)F)c2)[C@H](c2ccc(F)cc2)c2c(CNC(=O)CC#N)nn(-c3ccccc3)c21` [Compound I-299], the values for the IC50 in experiment [1] (setting [4]), in experiment [1] (setting [5]) and in experiment [3] were 200 to 1000 nM, at most 200 nM and 0.1 to 1 µM, respectively. For the same molecule, in experiment [2], the “% Adduct Formation” value is “+ (MS Emax % adduct formation greater than or equal to 0.0 and less than or equal to 30.0)”.
Take `CCN1C(=O)[C@@H](NC(=O)c2cccc(C(F)(F)F)c2)[C@@H](c2ccc(F)cc2)c2c(C(=O)N(CC#N)CC#N)nn(-c3ccccc3)c21` [Compound I-302]: the IC50 was at most 200 nM in experiment [1] (setting [4]), at most 200 nM in experiment [1] (setting [5]) and at most 0.1 µM in experiment [3]. Moreover, the “% Adduct Formation” value in experiment [2] is “+++ (MS Emax % adduct formation greater than 80.0 and less than or equal to 100.0)”.
On to `CCN1C(=O)[C@@H](NC(=O)c2cccc(C(F)(F)F)c2)C(c2ccc(F)cc2)c2c(C(=O)N(C)C(C)C#N)nn(C3CCOCC3)c21` (stereo partly drawn) [Compound I-305], for which the IC50 in experiment [1] (setting [4]) was at most 200 nM; in experiment [1] (setting [5]) it was at most 200 nM; in experiment [3], at most 0.1 µM. The “% Adduct Formation” value in experiment [2] was “+++ (MS Emax % adduct formation greater than 80.0 and less than or equal to 100.0)”.
Turning to `CCN1C(=O)[C@@H](NC(=O)c2cccc(C(F)(F)F)c2)[C@@H](c2ccc(C)cc2)c2c(C(=O)N(C)C(C)C#N)nn(C3CC3)c21` (stereo partly drawn) [Compound I-306], the IC50 in experiment [1] (setting [4]) is at most 200 nM; in experiment [1] (setting [5]), at most 200 nM; in experiment [3], at most 0.1 µM. Also, in experiment [2], the “% Adduct Formation” value is “++ (MS Emax % adduct formation greater than 30.0 and less than or equal to 80.0)”.
For the molecule `CCCn1nc(C(=O)N(C)C(C)C#N)c2c1N(CC)C(=O)[C@@H](NC(=O)c1cccc(C(F)(F)F)c1)[C@H]2c1ccc(F)cc1` (stereo partly drawn) [Compound I-307], the values for the IC50 in experiment [1] (setting [4]), in experiment [1] (setting [5]) and in experiment [3] were at most 200 nM, at most 200 nM and at most 0.1 µM, respectively. Further, in experiment [2], the “% Adduct Formation” value is “+++ (MS Emax % adduct formation greater than 80.0 and less than or equal to 100.0)”.
In the case of `CCN1C(=O)[C@@H](NC(=O)c2cccc(C(F)(F)F)c2)[C@@H](c2ccc(F)cc2)c2c(C(=O)N(C)[C@H](C#N)CCN3CCOCC3)nn(-c3ccccc3)c21` [Compound I-308], the IC50 in experiment [1] (setting [4]) is at most 200 nM; in experiment [1] (setting [5]), at most 200 nM; in experiment [3], at most 0.1 µM. For the same molecule, the “% Adduct Formation” value in experiment [2] was “+++ (MS Emax % adduct formation greater than 80.0 and less than or equal to 100.0)”.
Regarding `CCN1C(=O)[C@@H](NC(=O)c2cccc(C(F)(F)F)c2)[C@@H](c2ccc(F)cc2)c2c(C(=O)N(C)[C@@H](C#N)CCN3CCOCC3)nn(-c3ccccc3)c21` [Compound I-309], the IC50 was at most 200 nM in experiment [1] (setting [4]), at most 200 nM in experiment [1] (setting [5]) and at most 0.1 µM in experiment [3]. Further, the “% Adduct Formation” value in experiment [2] was “+ (MS Emax % adduct formation greater than or equal to 0.0 and less than or equal to 30.0)”.
Regarding `CCN1C(=O)[C@@H](NC(=O)c2cccc(C(F)(F)F)c2)[C@@H](c2ccc(F)cc2)c2c(C(=O)N(C)[C@H](C#N)CCN(C)C3COC3)nn(-c3ccccc3)c21` [Compound I-310], the figures for the IC50 in experiment [1] (setting [4]), in experiment [1] (setting [5]) and in experiment [3] were at most 200 nM, at most 200 nM and at most 0.1 µM, respectively. In experiment [2], the “% Adduct Formation” value was “+++ (MS Emax % adduct formation greater than 80.0 and less than or equal to 100.0)”.
Take `CCN1C(=O)[C@@H](NC(=O)c2cccc(C(F)(F)F)c2)[C@@H](c2ccc(F)cc2)c2c(C(=O)N(C)[C@H](C#N)CCN3CC4CC(C3)O4)nn(-c3ccccc3)c21` [Compound I-312]: the IC50 in experiment [1] (setting [4]) is at most 200 nM; in experiment [1] (setting [5]), at most 200 nM; in experiment [3] it was at most 0.1 µM. In addition, the “% Adduct Formation” value in experiment [2] is “+++ (MS Emax % adduct formation greater than 80.0 and less than or equal to 100.0)”.
For the molecule `CCN1C(=O)[C@@H](NC(=O)c2cccc(C(F)(F)F)c2)[C@@H](c2ccc(F)cc2)c2c(C(=O)N(C)[C@@H](C#N)CCN3CC4CC(C3)O4)nn(-c3ccccc3)c21` [Compound I-313], the IC50 is at most 200 nM in experiment [1] (setting [4]), at most 200 nM in experiment [1] (setting [5]) and at most 0.1 µM in experiment [3]. Moreover, the “% Adduct Formation” value in experiment [2] is “++ (MS Emax % adduct formation greater than 30.0 and less than or equal to 80.0)”.
Take `CCN1C(=O)[C@@H](NC(=O)c2cccc(C(F)(F)F)c2)[C@@H](c2ccc(F)cc2)c2c(C(=O)N(C)[C@H](C#N)CCN3CCC34COC4)nn(-c3ccccc3)c21` [Compound I-314]: the values for the IC50 in experiment [1] (setting [4]), in experiment [1] (setting [5]) and in experiment [3] were at most 200 nM, at most 200 nM and at most 0.1 µM, respectively. For the same molecule, the “% Adduct Formation” value in experiment [2] is “+++ (MS Emax % adduct formation greater than 80.0 and less than or equal to 100.0)”.
Consider `CCN1C(=O)[C@@H](NC(=O)c2cccc(C(F)(F)F)c2)[C@@H](c2ccc(F)cc2)c2c(C(=O)N(C)[C@@H](C#N)CCN3CCC34COC4)nn(-c3ccccc3)c21` [Compound I-315], for which the IC50 in experiment [1] (setting [4]) is at most 200 nM; in experiment [1] (setting [5]), at most 200 nM; in experiment [3], at most 0.1 µM. Moreover, in experiment [2], the “% Adduct Formation” value was “+++ (MS Emax % adduct formation greater than 80.0 and less than or equal to 100.0)”.
As for `CCN1C(=O)[C@@H](NC(=O)c2cccc(C(F)(F)F)c2)[C@@H](c2ccc(F)cc2)c2c(C(=O)N(C)[C@H](C#N)CCN3CCN(C4COC4)CC3)nn(-c3ccccc3)c21` [Compound I-316], the IC50 is at most 200 nM in experiment [1] (setting [4]), at most 200 nM in experiment [1] (setting [5]) and at most 0.1 µM in experiment [3]. For the same molecule, the “% Adduct Formation” value in experiment [2] was “+++ (MS Emax % adduct formation greater than 80.0 and less than or equal to 100.0)”.
Turning to `CCN1C(=O)[C@@H](NC(=O)c2cccc(C(F)(F)F)c2)[C@@H](c2ccc(F)cc2)c2c(C(=O)N(C)[C@@H](C#N)CCN3CCN(C4COC4)CC3)nn(-c3ccccc3)c21` [Compound I-317], the figures for the IC50 in experiment [1] (setting [4]), in experiment [1] (setting [5]) and in experiment [3] were at most 200 nM, at most 200 nM and at most 0.1 µM, respectively. Besides, the “% Adduct Formation” value in experiment [2] is “+++ (MS Emax % adduct formation greater than 80.0 and less than or equal to 100.0)”.
`CCN1C(=O)[C@@H](NC(=O)c2cccc(C(F)(F)F)c2)[C@@H](c2ccc(F)cc2)c2c(C(=O)N(C)[C@H](C#N)CCN3CC4CCC(C3)O4)nn(-c3ccccc3)c21` [Compound I-318]: the IC50 is at most 200 nM in experiment [1] (setting [4]), 1000 to 3000 nM in experiment [1] (setting [6]) and at most 0.1 µM in experiment [3]. Also, the “% Adduct Formation” value in experiment [2] was “+++ (MS Emax % adduct formation greater than 80.0 and less than or equal to 100.0)”.
